What was measured:
[1] = biological target: T1, Receptor-type tyrosine-protein kinase FLT3 (Homo sapiens, UniProt P36888); experiment: Inhibition of FLT3 (unknown origin)
T1 sequence (P36888 whole entry): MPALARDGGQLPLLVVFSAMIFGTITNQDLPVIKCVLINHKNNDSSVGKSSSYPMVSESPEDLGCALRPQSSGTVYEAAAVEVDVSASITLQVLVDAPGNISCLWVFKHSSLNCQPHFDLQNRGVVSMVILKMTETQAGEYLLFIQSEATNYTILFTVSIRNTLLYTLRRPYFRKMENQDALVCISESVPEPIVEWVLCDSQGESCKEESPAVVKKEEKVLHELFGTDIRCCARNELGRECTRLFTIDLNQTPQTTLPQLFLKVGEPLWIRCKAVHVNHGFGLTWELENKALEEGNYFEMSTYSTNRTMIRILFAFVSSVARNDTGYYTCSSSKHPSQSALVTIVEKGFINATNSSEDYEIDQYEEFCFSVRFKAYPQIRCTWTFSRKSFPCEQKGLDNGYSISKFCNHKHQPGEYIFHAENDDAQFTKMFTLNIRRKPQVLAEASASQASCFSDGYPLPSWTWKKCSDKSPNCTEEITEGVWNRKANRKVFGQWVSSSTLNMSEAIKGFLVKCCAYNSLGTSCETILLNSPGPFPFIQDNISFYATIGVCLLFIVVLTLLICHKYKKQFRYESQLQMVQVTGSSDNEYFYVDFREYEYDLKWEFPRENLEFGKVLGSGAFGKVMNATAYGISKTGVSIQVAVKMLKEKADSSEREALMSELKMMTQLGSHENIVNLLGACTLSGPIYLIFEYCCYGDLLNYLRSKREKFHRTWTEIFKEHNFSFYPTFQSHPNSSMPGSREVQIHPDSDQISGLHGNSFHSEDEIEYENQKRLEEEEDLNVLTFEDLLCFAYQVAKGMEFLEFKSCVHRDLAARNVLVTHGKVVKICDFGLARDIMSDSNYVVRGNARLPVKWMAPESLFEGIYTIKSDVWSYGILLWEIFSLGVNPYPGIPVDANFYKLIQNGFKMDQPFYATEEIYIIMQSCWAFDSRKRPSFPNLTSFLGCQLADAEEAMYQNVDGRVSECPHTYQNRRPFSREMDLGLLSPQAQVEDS

BaF3 = experiment: Antiproliferative activity against TEL-BMX transformed mouse BaF3 cells assessed as inhibition of cell proliferation
CCRF-CEM = experiment: Antiproliferative activity against human CCRF-CEM cells assessed as cell growth inhibition incubated for 48 hrs by MTT assay; type: functional

Compound	IC50 [1] [nM]	further results
Cc1oncc1C(=O)Nc1ccc2[nH]c(-c3cc(-n4cncc4C)cc(C(F)(F)F)c3)nc2c1	495	–
Cc1oncc1C(=O)Nc1ccc2[nH]c(-c3cc(-n4ccnc4C)cc(C(F)(F)F)c3)nc2c1	495	–
C=CC(=O)Nc1cc(-n2c(=O)ccc3cnc4ccc(-c5ccc(NS(C)(=O)=O)cc5)cc4c32)ccc1C	–	IC50 (BaF3): 25 nM
Cc1cn(-c2cc(-c3nc4cc(NC(=O)c5cnoc5C)ccc4[nH]3)cc(C(F)(F)F)c2)cn1	495	–
CCOC(=O)c1cnc2c(-c3nc4ccccc4s3)c(NC)nn2c1O	–	GI50 (CCRF-CEM): 16300 nM

Now from value to molecule, other results behind:

IC50 [1] [nM]	Compound	further results
495	Cc1oncc1C(=O)Nc1ccc2[nH]c(-c3cc(N4CCOCC4)cc(C(F)(F)F)c3)nc2c1	–
495	Cc1oncc1C(=O)Nc1ccc2[nH]c(-c3cnn(-c4ccccc4)c3C(F)(F)F)nc2c1	–

Source: ChEMBL document CHEMBL5620431, “2,4-Diaryl-pyrimido[1,2-a]benzimidazole derivatives as novel anticancer agents endowed with potent anti-leukemia activity: Synthesis, biological evaluation and kinase profiling” (Eur J Med Chem, 2023)
